For one assay, the system named is human T2R receptor. To be noted: functions as a bitter substance; cited from earlier work.
Assay [1] relates to scopolamine-induced amnesia. Nature of the assay: Y-shaped maze test, prophylactic activity against scopolamine-induced amnesia. Format: in vivo. Conditions: male ddY mice, scopolamine 1 mg/kg s.c. 30 min before test. An excerpt: The effect in improving brain function of the composition of the present invention, or the peptide the peptide Pro-Val-Arg-Gly-Pro-Phe-Pro-Ile-Ile-Val (SEQ ID NO: 2) or the peptide Val-Arg-Gly-Pro-Phe-Pro-Ile-Ile-Val (SEQ ID NO: 1) may be confirmed using a system based on an evaluation system for therapeutic drugs against Alzheimer's disease, the system using a Y-shaped maze test, for example. Specifically, a muscarinic receptor antagonist, such as scopolamine, may be used on a rat or a mouse so as to cause a hypofunction of the cholinergic neurons. Then, either the rat or the mouse may be administered with a drug, which induces amnesia by causing brain dysfunction, by itself, or the composition of the present invention, the peptide Pro-Val-Arg-Gly-Pro-Phe-Pro-Ile-Ile-Val (SEQ ID NO: 2) or the peptide Val-Arg-Gly-Pro-Phe-Pro-Ile-Ile-Val (SEQ ID NO: 1) together with such a drug, or the rat or the mouse may be administered, prior to the administration of such a drug, with the composition of the present invention, the peptide Pro-Val-Arg-Gly-Pro-Phe-Pro-Ile-Ile-Val (SEQ ID NO: 2) or the peptide Val-Arg-Gly-Pro-Phe-Pro-Ile-Ile-Val (SEQ ID NO: 1). Then, the mouse or the rat may be subjected to a test using a Y-shaped maze so that the prophylactic actions against amnesia of the composition of the present invention may be confirmed by using the percentage of change in spontaneous alternation behavior to different arms and the total number of entries into the maze as indicators.
Male mice (n=15 to 30) of the ddY strain (approximately 7-week old) were used, and they took food and water ad lib. Test substances used were 3 nmol/kg weight (3 μg/kg weight) and 30 nmol/kg weight (30 μg/kg weight) of Pro-Val-Arg-Gly-Pro-Phe-Pro-Ile-Ile-Val (SEO ID NO: 2). The test substances were administered to the mice once orally 60 minutes before the execution of a Y-shaped maze test for evaluation of spontaneous alternation behavior. […] The sequence of the arms each of the mice entered was recorded. The number of entries by each of the mice for each of the arms during the measurement time was counted to be the total number of entries. […] The percentage of spontaneous alternation behavior was calculated by dividing the number of spontaneous alternation behavior by a number obtained by subtracting 2 from the total number of entries, and multiplying a resultant number by 100. […] The measured values were expressed in the form of mean±standard error for each group. A significant difference between the control group and the scopolamine control group was calculated using Student's t-test. Further, a significant difference between the scopolamine control group and the PVRGPFPIIV (SEQ ID NO: 2)-administered group was calculated using Dunnett's multiple comparison test after one-way analysis of variance. […]

[2] abbreviates: Example 2, 3 nmol/kg weight (3 μg/kg) once orally 60 min before test.

For the sequence “PVRGPFPIIV (Synthetic functional peptide) [Pro-Val-Arg-Gly-Pro-Phe-Pro-Ile-Ile-Val]”, the “binding to human T2R receptor (receptor for bitter substances)” value in the assay with human T2R receptor was “binds to a human T2R receptor”. Besides, the “prophylactic activity against amnesia (percentage of spontaneous alternation behavior)” value is on record as “had a prophylactic activity against amnesia” in assay [1] (Example 1, 3 nmol/kg weight to 30 nmol/kg weight (3 μg/kg to 30 μg/kg) once orally 60 min before test) and “had a prophylactic activity against amnesia” in assay [1] (setting [2]). As to “RGPFPIIV (Synthetic comparative example peptide) [Arg-Gly-Pro-Phe-Pro-Ile-Ile-Val]”, in assay [1] (setting [2]), the “prophylactic activity against amnesia (percentage of spontaneous alternation behavior)” value is listed as “did not show any activity”.

With “VRGPFPIIV (Synthetic functional peptide) [Val-Arg-Gly-Pro-Phe-Pro-Ile-Ile-Val]”, the “prophylactic activity against amnesia (percentage of spontaneous alternation behavior)” value in assay [1] (setting [2]) is “had a prophylactic activity against amnesia”.

(Values after US8343924B2, “Composition for improving brain function and method for improving brain function” (Calpis Co., Ltd., priority 2009, dated 2013).)
